The values below come from publication PMC4476799, “Englerin A Agonizes the TRPC4/C5 Cation Channels to Inhibit Tumor Cell Line Proliferation” (PLoS ONE, 2015).

A short description of the data set: Anesthetized rat experiments (hemodynamics, blood levels). The format is in vivo. To be noted: individual animals; for Outcome: IV infusion 0.3 mg/kg englerin B (doses up to 0.3 mg/kg); for Compound concentration in blood: IV infusion 0.3 mg/kg englerin B. The protocol: Rats were anesthetized via an intra-peritoneal (ip) injection of ketamine/xylazine (80/10 mg/kg). A half dose (40 mg/kg ketamine) was given as supplemental anesthesia as needed. Animals were placed on a heating pad set to maintain body temperature at approximately 37°C. Body temperature was monitored throughout the experiment via a rectal temperature probe.
Once consciousness had been lost, the trachea was isolated and an endotracheal tube was inserted for mechanical ventilation. The endotracheal tube was connected to a mechanical ventilator that provided positive-pressure ventilation with room air, set to maintain 60 breaths/min with a tidal volume of 15 ml/kg. An incision was made on both sides of the neck. Both carotid arteries and a jugular vein were isolated and ligated anteriorly. A Millar pressure catheter was introduced into the left carotid artery to measure systolic arterial pressure (SAP), diastolic pressure (DAP), mean arterial pressure (MAP) and heart rate (HR). Another Millar pressure catheter was introduced into the left ventricular chamber through the right carotid artery to measure left ventricular systolic pressure (LVSP) and left ventricular end diastolic pressure (LVEDP).
A cannula for test compound administration was placed into a jugular vein. A lead II electrocardiogram was recorded via needle electrodes placed in the right arm, left leg and chest and PR and QRS intervals were reported.
After rats were surgically instrumented, hemodynamic and electrocardiographic monitoring was initiated. […] The duration of the experimental testing was approximately 60 minutes.
At the end of each infusion period, approximately 0.5 ml of blood was withdrawn from the vena cava into a pre-chilled collection tube containing 2.5 ml of 90% ACN (acetonitrile):10% water.

Several values for one entry are separate records, joined by “and”; a condition that tells them apart may be missing. Identical values can stand only once.

As for `CC(C)[C@@]12C[C@@H](O)[C@@](C)(O1)[C@@H]1CC[C@@H](C)[C@H]1[C@@H]2OC(=O)/C=C/c1ccccc1` [Englerin B], the Outcome entry is recorded as “No effect”; the “Compound concentration in blood” value is 539 nM and 362 nM and 462 nM and 442 nM. Further, for the setting “listed as englerin B”, the Outcome entry is given as “no effect on mean arterial pressure or animal viability” and the “Compound concentration in blood” value lay in the range of 362 to 539 nM.
